Reference: patent publication US9376418B2, “Substituted pyridine spleen tyrosine kinase (SYK) inhibitors” (Merck Sharp & Dohme Corp., priority 2012, dated 2016)

Target: T1, recombinant human GST-SYK (Homo sapiens, UniProt P43405)
T1 construct: purchased Carna Biosciences 08-176
Assay: Homogeneous Time-Resolved Fluorescence (HTRF) assay for the recombinant human Syk enzyme
Type: biochemical
Settings: HTRF assay, recombinant human GST-SYK; IC50 given as class symbols; read-out: rhSYK Activity
Outline: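 GST-hSYK ([…]) was preincubated with inhibitor (0.1% DMSO final) for 10 minutes at room temperature in 15 mM Tris-HCl pH 7.5, 0.01% tween 20, 2 mM DTT. Biotinylated peptide (250 nM), 5 mM magnesium and 25 μM ATP started a 45-minute room-temperature reaction, read by time-resolved fluorescence.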

Row | SMILES | IC50
1 | CCOC(=O)c1cncc(-c2cc(C)cc(Nc3nccc(C(F)(F)F)n3)c2)c1 [Example 2.68, ethyl 5-(3-methyl-5-{[4-(trifluoromethyl)pyrimidin-2-yl]amino}phenyl)pyridine-3-carboxylate] | < 100 nM
2 | Cc1cc(Nc2nccc(C(F)(F)F)n2)cc(-c2ccc(N3CCCNC(=O)C3)nc2)c1 [Example 2.70, 4-[5-(3-methyl-5-{[4-(trifluoromethyl)pyrimidin-2-yl]amino}phenyl)pyridin-2-yl]-1,4-diazepan-2-one] | < 100 nM
3 | Cc1cc(Nc2nccc(C(F)(F)F)n2)cc(-c2ccc(C(=O)NC3CC3)nc2)c1 [Example 2.71, N-cyclopropyl-5-(3-methyl-5-{[4-(trifluoromethyl)pyrimidin-2-yl]amino}phenyl)pyridine-2-carboxamide] | 100 to 1000 nM
4 | Cc1cc(Nc2nccc(C(F)(F)F)n2)cc(-c2cnc(N(C)C)c(C(=O)O)c2)c1 [Example 2.72, 2-(dimethylamino)-5-(3-methyl-5-{[4-(trifluoromethyl)pyrimidin-2-yl]amino}phenyl)pyridine-3-carboxylic acid] | < 100 nM
5 | O=C(O)c1cncc(-c2cccc(Nc3nccc(C(F)(F)F)n3)c2)c1 [Example 2.73, 5-(3-{[4-(trifluoromethyl)pyrimidin-2-yl]amino}phenyl)pyridine-3-carboxylic acid] | < 100 nM
6 | CNc1ncc(-c2cc(C)cc(Nc3nccc(C(F)(F)F)n3)c2)cc1C(=O)O [Example 2.74, 2-(methylamino)-5-(3-methyl-5-{[4-(trifluoromethyl)pyrimidin-2-yl]amino}phenyl)pyridine-3-carboxylic acid] | < 100 nM
7 | Cc1cc(Nc2nccc(C(F)(F)F)n2)cc(-c2cncc(C(C)(O)C(F)(F)F)c2)c1 (stereo not drawn) [Example 2.75, 1,1,1-trifluoro-2-[5-(3-methyl-5-{[4-(trifluoromethyl)pyrimidin-2-yl]amino}phenyl)pyridin-3-yl]propan-2-ol] | < 100 nM
8 | Cc1cc(Nc2nccc(C(F)(F)F)n2)cc(-c2ccc(C(C)(O)C(F)(F)F)nc2)c1 (stereo not drawn) [Example 2.76, 1,1,1-trifluoro-2-[5-(3-methyl-5-{[4-(trifluoromethyl)pyrimidin-2-yl]amino}phenyl)pyridin-2-yl]propan-2-ol] | 100 to 1000 nM
9 | CCOC(=O)CCc1ccc(-c2cccc(Nc3nccc(C(F)(F)F)n3)c2)cn1 [Example 2.77, ethyl 3-[5-(3-{[4-(trifluoromethyl)pyrimidin-2-yl]amino}phenyl)pyridin-2-yl]propanoate] | 100 to 1000 nM
10 | O=C(O)CCc1ccc(-c2cccc(Nc3nccc(C(F)(F)F)n3)c2)cn1 [Example 2.82, 3-[5-(3-{[4-(trifluoromethyl)pyrimidin-2-yl]amino}phenyl)pyridin-2-yl]propanoic acid] | < 100 nM
11 | CCOC(=O)CCc1ccc(-c2cc(C)cc(Nc3nccc(C)n3)c2)cn1 [Example 2.87, ethyl 3-(5-{3-methyl-5-[(4-methylpyrimidin-2-yl)amino]phenyl}pyridin-2-yl)propanoate] | 100 to 1000 nM
12 | CCOC(=O)CCc1ccc(-c2cc(C)cc(Nc3nccc(C4CC4)n3)c2)cn1 [Example 2.103, ethyl 3-(5-{3-[(4-cyclopropylpyrimidin-2-yl)amino]-5-methylphenyl}pyridin-2-yl)propanoate] | < 100 nM
13 | Cc1cc(Nc2nccc(C3CC3)n2)cc(-c2ccc(N[C@H]3CC[C@H](C(=O)O)CC3)nc2)c1 [Example 2.104, trans-4-[(5-{3-[(4-cyclopropylpyrimidin-2-yl)amino]-5-methylphenyl}pyridin-2-yl)amino]cyclohexanecarboxylic acid] | < 100 nM
14 | COc1ccnc(Nc2cc(C)cc(-c3ccc(N[C@H]4CC[C@H](C(=O)O)CC4)nc3)c2)n1 [Example 2.105, trans-4-[(5-{3-[(4-methoxypyrimidin-2-yl)amino]-5-methylphenyl}pyridin-2-yl)amino]cyclohexanecarboxylic acid] | < 100 nM
15 | Cc1cc(Nc2nccc(C)n2)cc(-c2ccc(N[C@H]3CC[C@H](C(=O)O)CC3)nc2)c1 [Example 2.106, trans-4-[(5-{3-methyl-5-[(4-methylpyrimidin-2-yl)amino]phenyl}pyridin-2-yl)amino]cyclohexanecarboxylic acid] | < 100 nM
16 | Cc1ccnc(Nc2cccc(-c3ccc(N[C@H]4CC[C@H](C(=O)O)CC4)nc3)c2)n1 [Example 2.107, trans-4-[(5-{3-[(4-methylpyrimidin-2-yl)amino]phenyl}pyridin-2-yl)amino]cyclohexanecarboxylic acid] | < 100 nM
17 | Cc1cc(Nc2nccc(C(C)C)n2)cc(-c2ccc(N[C@H]3CC[C@H](C(=O)O)CC3)nc2)c1 [Example 2.108, trans-4-{[5-(3-methyl-5-{[4-(1-methylethyl)pyrimidin-2-yl]amino}phenyl)pyridin-2-yl]amino}cyclohexanecarboxylic acid] | < 100 nM
18 | Cc1cc(Nc2nccc(C(F)(F)F)n2)cc(-c2ccc(NC(=O)CC#N)nc2)c1 [Example 2.109, 2-cyano-N-[5-(3-methyl-5-{[4-(trifluoromethyl)pyrimidin-2-yl]amino}phenyl)pyridin-2-yl]acetamide] | < 100 nM
19 | Cc1cc(Nc2nccc(C(F)(F)F)n2)cc(-c2ccc(OC3CCC(C(=O)O)CC3)nc2)c1 (stereo not drawn) [Example 2.110, 4-{[5-(3-methyl-5-{[4-(trifluoromethyl)pyrimidin-2-yl]amino}phenyl)pyridin-2-yl]oxy}cyclohexanecarboxylic acid] | < 100 nM
20 | Cc1cc(Nc2nccc(C(F)(F)F)n2)cc(-c2ccc(OC3CCC(C(=O)O)CC3)nc2)c1 (stereo not drawn) [Example 2.111, 4-{[5-(3-methyl-5-{[4-(trifluoromethyl)pyrimidin-2-yl]amino}phenyl)pyridin-2-yl]oxy}cyclohexanecarboxylic acid] | < 100 nM
21 | Cc1cc(Nc2nccc(C(F)(F)F)n2)cc(-c2ccc(Oc3ccc(C(=O)O)cc3)nc2)c1 [Example 2.112, 4-{[5-(3-methyl-5-{[4-(trifluoromethyl)pyrimidin-2-yl]amino}phenyl)pyridin-2-yl]oxy}benzoic acid] | < 100 nM
22 | CC(=O)c1ccc(-c2cc(C)cc(Nc3nccc(C(F)(F)F)n3)c2)cn1 [Example 2.113, 1-[5-(3-methyl-5-{[4-(trifluoromethyl)pyrimidin-2-yl]amino}phenyl)pyridin-2-yl]ethanone] | 100 to 1000 nM
23 | Cc1cc(Nc2nccc(C(F)(F)F)n2)cc(-c2ccc(C(C)(O)C(F)(F)F)nc2)c1 (stereo not drawn) [Example 2.115, 1,1,1-trifluoro-2-[5-(3-methyl-5-{[4-(trifluoromethyl)pyrimidin-2-yl]amino}phenyl)pyridin-2-yl]propan-2-ol] | 100 to 1000 nM
24 | Cc1cc(Nc2nccc(C(F)(F)F)n2)cc(-c2ccc(C(F)(F)C(=O)O)nc2)c1 [Example 2.116, difluoro[5-(3-methyl-5-{[4-(trifluoromethyl)pyrimidin-2-yl]amino}phenyl)pyridin-2-yl]acetic acid] | < 100 nM
25 | Cc1cc(Nc2nccc(C(F)(F)F)n2)cc(-c2ccc(C(F)(F)CO)nc2)c1 [Example 2.117, 2,2-difluoro-2-[5-(3-methyl-5-{[4-(trifluoromethyl)pyrimidin-2-yl]amino}phenyl)pyridin-2-yl]ethanol] | < 100 nM

The next lines start with the values.

Row | IC50 | SMILES
26 | < 100 nM | Cc1cc(Nc2nccc(C(F)(F)F)n2)cc(-c2cncc(C(=O)O)c2)c1 [Example 2.69, 5-(3-methyl-5-{[4-(trifluoromethyl)pyrimidin-2-yl]amino}phenyl)pyridine-3-carboxylic acid]
27 | < 100 nM | O=C(O)CCc1cncc(-c2cccc(Nc3nccc(C(F)(F)F)n3)c2)c1 [Example 2.79, 3-[5-(3-{[4-(trifluoromethyl)pyrimidin-2-yl]amino}phenyl)pyridin-3-yl]propanoic acid]
28 | < 100 nM | COc1ccnc(Nc2cc(C)cc(-c3ccc(CCC(=O)O)nc3)c2)n1 [Example 2.83, 3-(5-{3-[(4-methoxypyrimidin-2-yl)amino]-5-methylphenyl}pyridin-2-yl)propanoic acid]
29 | < 100 nM | COc1ccnc(Nc2cc(C)cc(-c3cncc(CCC(=O)O)c3)c2)n1 [Example 2.84, 3-(5-{3-[(4-methoxypyrimidin-2-yl)amino]-5-methylphenyl}pyridin-3-yl)propanoic acid]
30 | < 100 nM | Cc1cc(Nc2nccc(C(F)(F)F)n2)cc(-c2cncc(CCC(=O)O)c2)c1 [Example 2.86, 3-[5-(3-methyl-5-{[4-(trifluoromethyl)pyrimidin-2-yl]amino}phenyl)pyridin-3-yl]propanoic acid]
31 | 100 to 1000 nM | CCOC(=O)CCc1cncc(-c2cc(C)cc(Nc3nccc(C)n3)c2)c1 [Example 2.88, ethyl 3-(5-{3-methyl-5-[(4-methylpyrimidin-2-yl)amino]phenyl}pyridin-3-yl)propanoate]
32 | < 100 nM | Cc1cc(Nc2nccc(C)n2)cc(-c2ccc(CCC(=O)O)nc2)c1 [Example 2.89, 3-(5-{3-methyl-5-[(4-methylpyrimidin-2-yl)amino]phenyl}pyridin-2-yl)propanoic acid]
33 | 100 to 1000 nM | Cc1cc(Nc2nccc(C)n2)cc(-c2cncc(CCC(=O)O)c2)c1 [Example 2.90, 3-(5-{3-methyl-5-[(4-methylpyrimidin-2-yl)amino]phenyl}pyridin-3-yl)propanoic acid]
34 | < 100 nM | CCOC(=O)CCc1cncc(-c2cc(C)cc(Nc3nccc(C4CC4)n3)c2)c1 [Example 2.100]
35 | < 100 nM | Cc1cc(Nc2nccc(C3CC3)n2)cc(-c2ccc(CCC(=O)O)nc2)c1 [Example 2.101, 3-(5-{3-[(4-cyclopropylpyrimidin-2-yl)amino]-5-methylphenyl}pyridin-2-yl)propanoic acid]
36 | < 100 nM | Cc1cc(Nc2nccc(C3CC3)n2)cc(-c2cncc(CCC(=O)O)c2)c1 [Example 2.102, 3-(5-{3-[(4-cyclopropylpyrimidin-2-yl)amino]-5-methylphenyl}pyridin-3-yl)propanoic acid]
